# From US20260248824A1, “LIPID NANOPARTICLES” (SHIZUOKA PREFECTURAL UNIVERSITY CORPORATION, priority 2023, published 2026)
# Tested on: Insulinoma INS-1 cells derived from rat pancreatic β cells
# Assay: Antiapoptotic effects on pancreatic β cells (cleaved caspase-3 western blotting, thapsigargin-induced)
# Assay type: cell-based
# Conditions: thapsigargin 300 nM, nobiletin concentration 20 μM, 14 hours, FIG. 20
# Procedure: Insulinoma INS-1 cells derived from rat pancreatic β cells were seeded into a 6-well dish at 8×10^5 cells/well. […] After 14 hours of treatment, the cells were collected and subjected to SDS-PAGE, and protein expression in pancreatic β cells was analyzed by western blotting using a cleaved caspase-3 antibody as an indicator of apoptosis. Correction was made using the expression level of 3-actin as an internal standard.
compound,measurement,value
"COc1ccc(-c2cc(=O)c3c(OC)c(OC)c(OC)c(OC)c3o2)cc1OC [nobiletin alone, nobiletin]",Suppression of thapsigargin-induced increase in cleaved caspase 3 (antiapoptotic activity),The effects were comparative with nobiletin alone
